In patent US20250263370A1 (Tay Therapeutics Limited, priority 2022, published 2025):
Where “and” joins values, the source holds several entries; their conditions need not be identical. Equal values may be shown once.

System: collagen-induced arthritis
Assay: Collagen-induced arthritis (CIA) model in rats: body weight, paw volume, clinical scores, clinical observations; on Average detailed clinical score, left hind limb: key of the grades not given here; on Average detailed clinical score, right hind limb: key of the grades not given here; on Detailed Clinical Scores, left forelimb: key of the grades not given here; on Detailed Clinical Scores, left hind limb: key of the grades not given here; on Detailed Clinical Scores, right forelimb: key of the grades not given here; on Detailed Clinical Scores, right hind limb: key of the grades not given here; on Detailed Clinical Scores, score: key of the grades not given here; on Detailed Clinical Scores: left forelimb: key of the grades not given here; on Detailed Clinical Scores: left hind limb: key of the grades not given here; on Detailed Clinical Scores: right forelimb: key of the grades not given here; on Detailed Clinical Scores: right hind limb: key of the grades not given here; on Detailed Clinical Scores: score: key of the grades not given here; on Mean overall clinical score ± SD: key of the grades not given here; on overall clinical score: key of the grades not given here
Conditions: for Average detailed clinical score, right hind limb / Average detailed clinical score, score / Mean overall clinical score ± SD / Overall clinical score / Average detailed clinical score, left forelimb / Average detailed clinical score, left hind limb / Average detailed clinical score, right forelimb / Detailed Clinical Scores, left forelimb / Detailed Clinical Scores, left hind limb / Detailed Clinical Scores, right forelimb / Detailed Clinical Scores, right hind limb / Detailed Clinical Scores, score / Detailed Clinical Scores: left forelimb / Detailed Clinical Scores: left hind limb / Detailed Clinical Scores: right forelimb / Detailed Clinical Scores: right hind limb / Detailed Clinical Scores: score: CIA rats; for Overall clinical score: individual animals #1-8; for Mean animal paw volume ± SD: group mean; for Detailed Clinical Scores, left forelimb / Detailed Clinical Scores, left hind limb / Detailed Clinical Scores, right forelimb / Detailed Clinical Scores, right hind limb / Detailed Clinical Scores, score / Detailed Clinical Scores: left forelimb / Detailed Clinical Scores: left hind limb / Detailed Clinical Scores: right forelimb / Detailed Clinical Scores: right hind limb / Detailed Clinical Scores: score: individual animals ID 1-8; for Animal paw volume percent change: individual animals
Protocol: Prior to be randomly placed in treatment groups, animals were weighed, and paw volume was measured. Once randomly assigned to treatment groups, on Day 0, animals in groups 2-9 were immunized by subcutaneous injection at the base of the tail.
The immunization comprised 100 μL of the CFA+Collagen emulsion (prepared according to the method in Experimental Method A). Animals in group one received no immunization. Seven days after the first injection, animals in groups 2-9 received a booster immunization comprising 200 μL of the IFA+Collagen emulsion (prepared according to the method in Experimental Method A).
Starting on Day 0, animals in group 1 and 2 were administered daily doses of the vehicle per os (P.O.) for 21 days. […] The twice daily doses for animals in groups 4-9 were 8 hours apart (e.g., the first dose at 8:00 AM and the second dose at 4:00 PM).
Body weight of all animals was recorded daily for the 21-day period. Blind clinical scores on all four limbs were conducted for all animals in the study. Animals were assessed prior to receiving their first dose of the compound or control, and scores for each limb were combined to a total daily score for each animal. Clinical score assessments were performed on Day 0, 6, 12, 13, 14, 15, 18, 19, and 21 (for a total of 9 daily scores).
Paw volume was recorded for each animal on Day 0, 6, 12, 13, 14, 15, 18, 19, and 21 (for a total of 9 measurements). To measure paw volume, animals were gently held with one hand while the hind paw was placed into a plethysmometer with the other hand. Lipid displacement by the paw was recorded and used to represent paw volume.
All data measured and recorded was analyzed using SPSS 16.0 software. Groups were compared using one-way ANOVA and significance was set at p<0.05.

Compound: CNC(=O)c1[nH]c(C(=O)NC2CCC2)cc1O[C@@H](C)c1ccccc1 (stereo in doubt) [Example 101, N^5-cyclobutyl-N^2-methyl-3-(1-phenylethoxy)-1H-pyrrole-2,5-dicarboxamide]
- Average detailed clinical score, right hind limb (Day 12, 10 mg/kg): 0.25
- Average detailed clinical score, score (Day 12, 10 mg/kg): 0.50
- Mean overall clinical score ± SD (Day 12, 10 mg/kg): 1 ± 1
- Overall clinical score (Day 12, 10 mg/kg): 1 and 0 and 2
- Average detailed clinical score, left forelimb (Day 12, 30 mg/kg): 0.00
- Average detailed clinical score, left hind limb (Day 12, 30 mg/kg): 0.00
- Average detailed clinical score, right forelimb (Day 12, 30 mg/kg): 0.00
- Average detailed clinical score, right hind limb (Day 12, 30 mg/kg): 0.13
- Average detailed clinical score, score (Day 12, 30 mg/kg): 0.13
- Mean overall clinical score ± SD (Day 12, 30 mg/kg): 0 ± 0
- Mean animal paw volume ± SD (Day 13, L paw, 3 mg/kg): 1.53 mL
- Mean animal paw volume ± SD (Day 13, L paw, 10 mg/kg): 1.52 mL
- Mean animal paw volume ± SD (Day 13, L paw, 30 mg/kg): 1.35 mL
- Mean animal paw volume ± SD (Day 13, R paw, 3 mg/kg): 1.46 mL
- Mean animal paw volume ± SD (Day 13, R paw, 10 mg/kg): 1.45 mL
- Mean animal paw volume ± SD (Day 13, R paw, 30 mg/kg): 1.37 mL
- Detailed Clinical Scores, left forelimb (Day 13, 3 mg/kg): 0
- Detailed Clinical Scores, left hind limb (Day 13, 3 mg/kg): 1 (4×) and 0 (3×) and 2
- Detailed Clinical Scores, right forelimb (Day 13, 3 mg/kg): 0 (6×) and 1 (2×)
- Detailed Clinical Scores, right hind limb (Day 13, 3 mg/kg): 0 (7×) and 1
- Detailed Clinical Scores, score (Day 13, 3 mg/kg): 1 (2×) and 2 (2×) and 0 (3×) and 3
- Detailed Clinical Scores, left forelimb (Day 13, 10 mg/kg): 0
- Detailed Clinical Scores, left hind limb (Day 13, 10 mg/kg): 2 (3×) and 0 (4×) and 1
- Detailed Clinical Scores, right forelimb (Day 13, 10 mg/kg): 0
- Detailed Clinical Scores, right hind limb (Day 13, 10 mg/kg): 1 and 0 (6×) and 2
- Detailed Clinical Scores, score (Day 13, 10 mg/kg): 3 and 0 (4×) and 4 and 2 and 1
- Detailed Clinical Scores, left forelimb (Day 13, 30 mg/kg): 0
- Detailed Clinical Scores, left hind limb (Day 13, 30 mg/kg): 0
- Detailed Clinical Scores, right forelimb (Day 13, 30 mg/kg): 0
- Detailed Clinical Scores, right hind limb (Day 13, 30 mg/kg): 1 and 0 (7×)
- Detailed Clinical Scores, score (Day 13, 30 mg/kg): 1 and 0 (7×)
- Average detailed clinical score, left forelimb (Day 13, 3 mg/kg): 0.00
- Average detailed clinical score, left hind limb (Day 13, 3 mg/kg): 0.75
- Average detailed clinical score, right forelimb (Day 13, 3 mg/kg): 0.25
- Average detailed clinical score, right hind limb (Day 13, 3 mg/kg): 0.13
- Average detailed clinical score, score (Day 13, 3 mg/kg): 1.13
- Mean overall clinical score ± SD (Day 13, 3 mg/kg): 1 ± 1
- Overall clinical score (Day 13, 3 mg/kg): 1 (2×) and 2 (2×) and 0 (3×) and 3
- Average detailed clinical score, left forelimb (Day 13, 10 mg/kg): 0.00
- Average detailed clinical score, left hind limb (Day 13, 10 mg/kg): 0.88
- Average detailed clinical score, right forelimb (Day 13, 10 mg/kg): 0.00
- Average detailed clinical score, right hind limb (Day 13, 10 mg/kg): 0.38
- Average detailed clinical score, score (Day 13, 10 mg/kg): 1.25
- Mean overall clinical score ± SD (Day 13, 10 mg/kg): 1 ± 2
- Overall clinical score (Day 13, 10 mg/kg): 3 and 0 and 4
- Average detailed clinical score, left forelimb (Day 13, 30 mg/kg): 0.00
- Average detailed clinical score, left hind limb (Day 13, 30 mg/kg): 0.00
- Average detailed clinical score, right forelimb (Day 13, 30 mg/kg): 0.00
- Average detailed clinical score, right hind limb (Day 13, 30 mg/kg): 0.13
- Average detailed clinical score, score (Day 13, 30 mg/kg): 0.13
- Mean overall clinical score ± SD (Day 13, 30 mg/kg): 0 ± 0
- Mean animal paw volume ± SD (Day 14, L paw, 3 mg/kg): 1.69 mL
- Mean animal paw volume ± SD (Day 14, L paw, 10 mg/kg): 1.70 mL
- Mean animal paw volume ± SD (Day 14, L paw, 30 mg/kg): 1.35 mL
- Mean animal paw volume ± SD (Day 14, R paw, 3 mg/kg): 1.59 mL
- Mean animal paw volume ± SD (Day 14, R paw, 10 mg/kg): 1.59 mL
- Mean animal paw volume ± SD (Day 14, R paw, 30 mg/kg): 1.37 mL
- Detailed Clinical Scores, left forelimb (Day 14, 3 mg/kg): 0
- Detailed Clinical Scores, left hind limb (Day 14, 3 mg/kg): 1 (7×) and 3
- Detailed Clinical Scores, right forelimb (Day 14, 3 mg/kg): 0 (6×) and 1 (2×)
- Detailed Clinical Scores, right hind limb (Day 14, 3 mg/kg): 1 (2×) and 0 (4×) and 2 and 3
- Detailed Clinical Scores, score (Day 14, 3 mg/kg): 2 (3×) and 4 and 1 (3×) and 6
- Detailed Clinical Scores, left forelimb (Day 14, 10 mg/kg): 0
- Detailed Clinical Scores, left hind limb (Day 14, 10 mg/kg): 3 (3×) and 4 and 0 (4×)
- Detailed Clinical Scores, right forelimb (Day 14, 10 mg/kg): 0
- Detailed Clinical Scores, right hind limb (Day 14, 10 mg/kg): 1 (3×) and 3 and 0 (4×)
- Detailed Clinical Scores, score (Day 14, 10 mg/kg): 4 (2×) and 6 and 5 and 0 (4×)
- Detailed Clinical Scores, left forelimb (Day 14, 30 mg/kg): 0
- Detailed Clinical Scores, left hind limb (Day 14, 30 mg/kg): 0
- Detailed Clinical Scores, right forelimb (Day 14, 30 mg/kg): 0
- Detailed Clinical Scores, right hind limb (Day 14, 30 mg/kg): 1 and 0 (7×)
- Detailed Clinical Scores, score (Day 14, 30 mg/kg): 1 and 0 (7×)
- Average detailed clinical score, left forelimb (Day 14, 3 mg/kg): 0.00
- Average detailed clinical score, left hind limb (Day 14, 3 mg/kg): 1.25
- Average detailed clinical score, right forelimb (Day 14, 3 mg/kg): 0.25
- Average detailed clinical score, right hind limb (Day 14, 3 mg/kg): 0.88
- Average detailed clinical score, score (Day 14, 3 mg/kg): 2.38
- Mean overall clinical score ± SD (Day 14, 3 mg/kg): 2 ± 2
- Overall clinical score (Day 14, 3 mg/kg): 2 (3×) and 4 and 1 (3×) and 6
- Average detailed clinical score, left forelimb (Day 14, 10 mg/kg): 0.00
- Average detailed clinical score, left hind limb (Day 14, 10 mg/kg): 1.63
- Average detailed clinical score, right forelimb (Day 14, 10 mg/kg): 0.00
- Average detailed clinical score, right hind limb (Day 14, 10 mg/kg): 0.75
- Average detailed clinical score, score (Day 14, 10 mg/kg): 2.38
- Mean overall clinical score ± SD (Day 14, 10 mg/kg): 2 ± 3
- Overall clinical score (Day 14, 10 mg/kg): 4 (2×) and 6
- Average detailed clinical score, left forelimb (Day 14, 30 mg/kg): 0.00
- Average detailed clinical score, left hind limb (Day 14, 30 mg/kg): 0.00
- Average detailed clinical score, right forelimb (Day 14, 30 mg/kg): 0.00
- Average detailed clinical score, right hind limb (Day 14, 30 mg/kg): 0.13
- Average detailed clinical score, score (Day 14, 30 mg/kg): 0.13
- Mean overall clinical score ± SD (Day 14, 30 mg/kg): 0 ± 0
- Mean animal paw volume ± SD (Day 15, L paw, 3 mg/kg): 1.86 mL
- Animal paw volume percent change (Day 15, L paw, 3 mg/kg): 31.80% and 28.90% and 44.87% and 22.68% and 86.59% and 50.55% and 30.34%
- Mean animal paw volume ± SD (Day 15, L paw, 10 mg/kg): 1.83 mL
- Animal paw volume percent change (Day 15, L paw, 10 mg/kg): 53.43% and 36.90% and 80.93% and 93.39% and 7.66% and 22.69%
- Mean animal paw volume ± SD (Day 15, L paw, 30 mg/kg): 1.45 mL
- Mean animal paw volume ± SD (Day 15, R paw, 3 mg/kg): 1.92 mL
- Animal paw volume percent change (Day 15, R paw, 3 mg/kg): 25.86% and 20.97% and 74.62% and 27.24% and 84.29% and 50.19% and 48.69%
- Mean animal paw volume ± SD (Day 15, R paw, 10 mg/kg): 1.75 mL
- Animal paw volume percent change (Day 15, R paw, 10 mg/kg): 37.01% and 45.42% and 94.98% and 47.10% and 6.18% and 10.73%
- Mean animal paw volume ± SD (Day 15, R paw, 30 mg/kg): 1.48 mL
- Detailed Clinical Scores: left forelimb (Day 15, 3 mg/kg): 0
- Detailed Clinical Scores: left hind limb (Day 15, 3 mg/kg): 1 (3×) and 2 (3×) and 4 and 3
- Detailed Clinical Scores: right forelimb (Day 15, 3 mg/kg): 0 (6×) and 1 (2×)
- Detailed Clinical Scores: right hind limb (Day 15, 3 mg/kg): 1 (3×) and 3 (2×) and 2 (2×) and 4
- Detailed Clinical Scores: score (Day 15, 3 mg/kg): 2 and 3 (3×) and 6 (2×) and 8 and 4
- Detailed Clinical Scores: left forelimb (Day 15, 10 mg/kg): 0
- Detailed Clinical Scores: left hind limb (Day 15, 10 mg/kg): 3 (2×) and 2 and 4 and 0 (2×) and 1 (2×)
- Detailed Clinical Scores: right forelimb (Day 15, 10 mg/kg): 0
- Detailed Clinical Scores: right hind limb (Day 15, 10 mg/kg): 2 (3×) and 4 and 0 (2×) and 1 (2×)
- Detailed Clinical Scores: score (Day 15, 10 mg/kg): 5 and 4 and 7 and 6 and 0 and 1 (2×) and 2
- Detailed Clinical Scores: left forelimb (Day 15, 30 mg/kg): 0
- Detailed Clinical Scores: left hind limb (Day 15, 30 mg/kg): 0 (6×) and 2 and 1
- Detailed Clinical Scores: right forelimb (Day 15, 30 mg/kg): 0
- Detailed Clinical Scores: right hind limb (Day 15, 30 mg/kg): 1 (2×) and 0 (5×) and 2
- Detailed Clinical Scores: score (Day 15, 30 mg/kg): 1 and 2 (3×) and 0 (4×)
- Average detailed clinical score, left forelimb (Day 15, 3 mg/kg): 0.00
